Source: patent publication US8906925B2, “Pyrido[4,3-B]indoles containing rigid moieties” (Medivation Technologies, Inc., priority 2008, dated 2014)
pEC50, pIC50: −log10 of the molar value. Where “and” joins values, the source holds several entries; their conditions need not be identical. Identical values can stand only once.

Tests used:
[1] = molecular target: human recombinant dopamine D2S receptor (Homo sapiens, UniProt P14416); assay: Dopamine D2S [35S]GTPγS functional assay (SPA, CHO membranes); type: biochemical; settings: read-out: D2S GTPgS % Inhibition
Sequence of human recombinant dopamine D2S receptor (P14416 1-414 isoform P14416-2): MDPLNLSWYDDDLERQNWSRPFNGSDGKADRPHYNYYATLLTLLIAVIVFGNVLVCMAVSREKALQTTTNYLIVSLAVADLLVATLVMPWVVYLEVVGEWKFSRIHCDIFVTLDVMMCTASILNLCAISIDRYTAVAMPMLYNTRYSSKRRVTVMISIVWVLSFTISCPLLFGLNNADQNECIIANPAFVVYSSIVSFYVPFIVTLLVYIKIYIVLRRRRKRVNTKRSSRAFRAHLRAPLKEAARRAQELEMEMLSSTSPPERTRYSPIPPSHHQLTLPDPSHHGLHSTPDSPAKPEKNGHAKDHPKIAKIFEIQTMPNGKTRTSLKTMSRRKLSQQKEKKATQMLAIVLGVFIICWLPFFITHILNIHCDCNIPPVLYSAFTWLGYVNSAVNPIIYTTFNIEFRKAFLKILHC
Experimental: To determine for agonist or antagonist activity of compounds of the invention in functional assays, human recombinant dopamine D2S receptor stably expressed in Chinese hamster ovary (CHO) cells (Gilliland S L and Alper R H. Naunyn-Schmiedeberg's Archives of Pharmacology. 361: 498, 2000) was used. Compounds of invention were pre-incubated with the membranes (0.05 mg/mL) and 3 µM GDP in modified HEPES buffer (20 mM HEPES, pH 7.4, 100 mM NaCl, 10 mM MgCl2, 1 mM DTT, 1 mM EDTA) for 20 min. and Scintillation Proximity Assay (SPA) beads were then added for another 60 min. at 30° C. The reaction was initiated by 0.3 nM [^35S]GTPγS for an additional 30 min. incubation period. […] Compounds were screened at […] or lower, using 0.4% DMSO as vehicle. Assay results are presented as the percent response of specific binding in Table 13.

[2] = molecular target: human recombinant serotonin 5-HT2A receptor (Homo sapiens, UniProt P28223); assay: 5-HT2A agonist/antagonist functional assay (cytosolic Ca2+ fluorescence, HEK-293 cells); type: cell-based
Sequence of human recombinant serotonin 5-HT2A receptor (P28223 whole entry): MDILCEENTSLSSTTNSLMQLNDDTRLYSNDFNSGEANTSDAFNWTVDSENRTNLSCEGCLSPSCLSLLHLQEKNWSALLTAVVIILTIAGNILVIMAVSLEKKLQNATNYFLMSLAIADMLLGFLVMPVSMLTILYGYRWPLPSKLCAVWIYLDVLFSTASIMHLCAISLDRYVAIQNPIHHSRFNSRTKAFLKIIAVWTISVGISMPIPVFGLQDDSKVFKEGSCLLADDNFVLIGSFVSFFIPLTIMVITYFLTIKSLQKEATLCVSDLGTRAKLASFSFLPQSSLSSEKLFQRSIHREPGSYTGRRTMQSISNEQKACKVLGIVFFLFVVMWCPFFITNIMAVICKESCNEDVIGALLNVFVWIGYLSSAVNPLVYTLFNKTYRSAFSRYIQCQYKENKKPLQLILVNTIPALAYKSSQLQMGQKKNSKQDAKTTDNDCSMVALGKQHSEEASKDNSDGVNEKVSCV
Excerpt: To determine for agonist or antagonist activity of compounds of the invention in functional assays, human recombinant serotonin 5-HT2A receptor expressed in human embryonic kidney (HEK-293) cells (Jerman J C, Brough S J, Gager T, Wood M, Coldwell M C, Smart D and Middlemiss D N, Eur J Pharmacol, 414: 23-30, 2001) or human recombinant serotonin 5-HT7 receptor expressed in CHO cells (Adham, et al. J. Pharmacol. Exp. Ther. 287:508-514, 1998) was used. Cells were suspended in DMEM buffer, and distributed in microplates. For the 5-HT2A assay, a cytoplasmic calcium fluorescent indicator which varies proportionally to the free cytosolic Ca^2+ ion concentration was mixed with probenicid in HBSS buffer complemented with 20 mM Hepes (pH 7.4), added into each well and equilibrated with the cells for 30 min. at 37° C. followed by 30 min. at 22° C. For the 5-HT7 assay, the reaction product was cAMP, detected by HTRF.
To measure 5-HT2A agonist effects, compounds of the invention, reference agonist or HBSS buffer (basal control) was added to the cells and changes in fluorescence intensity were measured using a microplate reader.
The standard reference antagonist was ketanserin (5-HT2A) or mesulergine (5-HT7), which was tested in each experiment at several concentrations to generate a concentration-response curve from which its IC50 value was calculated. […]

[3] = molecular target: human dopamine D2L receptor (Homo sapiens, UniProt P14416); assay: Dopamine D2L [35S]GTPγS functional assay (SPA, CHO membranes); type: biochemical; settings: read-out: D2L GTPgS % Inhibition
Sequence of human dopamine D2L receptor (P14416 whole entry): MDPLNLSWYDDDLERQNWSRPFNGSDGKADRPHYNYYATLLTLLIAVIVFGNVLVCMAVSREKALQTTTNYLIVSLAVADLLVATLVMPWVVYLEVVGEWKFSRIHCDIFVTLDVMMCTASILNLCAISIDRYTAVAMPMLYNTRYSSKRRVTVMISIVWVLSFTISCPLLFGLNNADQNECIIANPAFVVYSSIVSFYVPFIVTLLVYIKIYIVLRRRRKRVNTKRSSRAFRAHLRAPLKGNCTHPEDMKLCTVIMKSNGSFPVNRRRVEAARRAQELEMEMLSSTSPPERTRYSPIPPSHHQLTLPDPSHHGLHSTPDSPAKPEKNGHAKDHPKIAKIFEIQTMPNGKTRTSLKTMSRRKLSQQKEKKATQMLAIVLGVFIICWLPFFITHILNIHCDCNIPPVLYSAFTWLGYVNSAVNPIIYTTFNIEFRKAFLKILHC
Experimental: To determine for agonist or antagonist activity of compounds of the invention in functional assays, human recombinant dopamine D2L receptor stably expressed in Chinese hamster ovary (CHO) cells (Senogles S E et al. J Biol Chem. 265(8): 4507, 1990) was used. Compounds of invention were pre-incubated with the membranes (0.1 mg/mL) and 10 mM GDP in modified HEPES buffer (20 mM HEPES, pH 7.4, 100 mM NaCl, 10 mM MgCl2, 1 mM DTT, 1 mM EDTA) for 20 min. and Scintillation Proximity Assay (SPA) beads were added for another 60 min. at 30° C. The reaction was initiated by 0.3 nM [^35S]GTPγS for an additional 15 min. incubation period. […] Compounds were screened at […] or lower, using 0.4% DMSO as vehicle. Assay results are presented as the percent response of specific binding in Table 12.

histamine receptor H1 = histamine receptor H1 (Homo sapiens, UniProt P35367); assay: Inhibition of binding of a ligand (Pyrilamine) to histamine receptor H1; settings: as compared to the unsubstituted vinyl counterpart (106 vs compound 415; 85 vs compound 95)
Sequence of histamine receptor H1 (P35367 whole entry): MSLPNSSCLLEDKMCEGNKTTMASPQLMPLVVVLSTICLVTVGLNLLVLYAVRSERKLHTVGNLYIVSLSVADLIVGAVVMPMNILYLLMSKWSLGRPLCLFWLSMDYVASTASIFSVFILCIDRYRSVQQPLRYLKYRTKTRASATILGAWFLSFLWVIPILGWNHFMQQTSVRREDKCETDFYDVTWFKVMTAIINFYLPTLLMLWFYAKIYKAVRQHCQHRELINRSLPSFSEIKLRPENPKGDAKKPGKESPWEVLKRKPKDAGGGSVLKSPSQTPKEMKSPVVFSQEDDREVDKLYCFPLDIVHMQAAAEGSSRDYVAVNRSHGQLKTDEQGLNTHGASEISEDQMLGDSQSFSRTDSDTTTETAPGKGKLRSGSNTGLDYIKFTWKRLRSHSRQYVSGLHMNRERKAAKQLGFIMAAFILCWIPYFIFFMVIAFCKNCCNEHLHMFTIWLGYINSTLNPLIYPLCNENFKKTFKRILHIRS
Experimental: The number and extent of undesirable side effects increases with increasing affinity for the H1 receptor Thus, in one aspect, compounds of the formulae herein display reduced, low or no affinity to histamine receptor H1. […] Inhibition of binding of a ligand to H1 for all variations detailed herein is determined by a suitable assay known in the art such as the assay described herein. […] In one variation, compounds of the formulae herein inhibit binding of a ligand to H1 by between about 50% to about 80%. […] In one variation, compounds of the formulae herein inhibit binding of Pyrilamine to H1 as determined in the assay described herein. In a further variation, percent inhibition of binding to H1 is measured by assays detailed herein.
The binding properties of compounds disclosed herein to a panel of aminergic G protein-coupled receptors including adrenergic receptors, dopamine receptors, serotonin receptors, histamine receptors and an imidazoline receptor may be determined. Binding properties may be assessed by methods known in the art, such as competitive binding assays. In one variation, compounds are assessed by the binding assays detailed herein. […]
In one aspect, DDT compounds display low affinity to histamine receptor H1. […] Inhibition of binding of a ligand to H1 for all variations detailed herein is determined by a suitable assay known in the art such as the assay described herein. […]

| inhibition at 0.001 µM ([1]; conc. 1 nM) [%] | inhibition at 0.003 µM ([1]; conc. 3 nM) [%] | inhibition at 0.01 µM ([1]; conc. 10 nM) [%] | inhibition at 0.03 µM ([1]; conc. 30 nM) [%] | inhibition at 0.1 µM ([1]; conc. 100 nM) [%] | pEC50 [2] | pIC50 ([2]; vs 3 nM 5-HT) | inhibition at 0.001 µM ([3]; conc. 1 nM) [%] | inhibition at 0.003 µM ([3]; conc. 3 nM) [%] | inhibition at 0.01 µM ([3]; conc. 10 nM) [%] | inhibition at 0.03 µM ([3]; conc. 30 nM) [%] | inhibition at 0.1 µM ([3]; conc. 100 nM) [%] | SMILES | binding affinity to H1 (histamine receptor H1) |
| --- | --- | --- | --- | --- | --- | --- | --- | --- | --- | --- | --- | --- | --- |
| 15 | 45 | 56 | 74 | 91 | 5.51 | 6.01 and < 6.00 | 16 | 28 | 49 | 55 | 77 | C/C(=C\n1c2c(c3cc(Cl)ccc31)CN(C)CC2)c1ccc(F)cc1 [Compound 83, (E)-8-chloro-5-(2-(4-fluorophenyl)prop-1-enyl)-2,3,4,5-tetrahydro-2-methyl-1H-pyrido[4,3-b]indole] |  |
|  |  |  |  |  |  |  |  |  |  |  |  | C/C(=C\n1c2c(c3cc(Cl)ccc31)CN(C)CC2)c1ccccc1 [compound 106, (E)-8-chloro-2,3,4,5-tetrahydro-2-methyl-5-(2-phenylprop-1-enyl)-1H-pyrido[4,3-b]indole] | lower binding affinity to H1 |
